Source: patent US20230102554A1 (GB002, INC., priority 2019, published 2023)

Assays:
[1] = biological target: T1, Human PDGFRα, cytoplasmic domain (GST-PDGFRα) (Homo sapiens, UniProt P16234); experiment: Human PDGFRα biochemical inhibition assay (off-chip Mobility Shift Assay)
T1 construct: made in house

[2] = biological target: T2, Human PDGFRβ, cytoplasmic domain (GST-PDGFRβ) (Homo sapiens, UniProt P09619); experiment: Human PDGFRβ biochemical inhibition assay (off-chip Mobility Shift Assay)
T2 construct: made in house
T2 sequence (P09619 with tags, fused parts or gaps): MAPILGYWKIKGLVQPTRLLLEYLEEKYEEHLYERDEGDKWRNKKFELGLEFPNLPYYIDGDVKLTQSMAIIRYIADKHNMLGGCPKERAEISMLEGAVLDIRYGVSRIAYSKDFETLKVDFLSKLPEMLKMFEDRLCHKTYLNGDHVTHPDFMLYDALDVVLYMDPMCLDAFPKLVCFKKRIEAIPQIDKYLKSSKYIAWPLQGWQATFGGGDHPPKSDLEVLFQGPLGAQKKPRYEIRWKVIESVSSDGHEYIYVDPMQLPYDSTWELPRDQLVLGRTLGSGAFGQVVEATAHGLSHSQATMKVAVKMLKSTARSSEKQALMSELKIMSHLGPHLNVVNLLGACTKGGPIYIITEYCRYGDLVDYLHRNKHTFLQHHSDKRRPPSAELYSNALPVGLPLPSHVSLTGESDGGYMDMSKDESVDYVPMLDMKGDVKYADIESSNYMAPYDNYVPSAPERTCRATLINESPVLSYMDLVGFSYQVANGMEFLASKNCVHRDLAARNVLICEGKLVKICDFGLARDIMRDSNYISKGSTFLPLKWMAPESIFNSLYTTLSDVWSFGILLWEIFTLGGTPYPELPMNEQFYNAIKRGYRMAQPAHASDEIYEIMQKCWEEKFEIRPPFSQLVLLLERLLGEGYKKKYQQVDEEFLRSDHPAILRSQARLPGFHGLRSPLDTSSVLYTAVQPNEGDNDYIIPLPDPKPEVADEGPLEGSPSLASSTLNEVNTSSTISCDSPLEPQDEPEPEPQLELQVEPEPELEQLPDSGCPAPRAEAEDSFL
Summary of the method: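 GST-tagged cytoplasmic domain (aa 557-1106) from baculovirus was incubated 1 h at room temperature with compound, CSKtide, ATP at Km and Mg²⁺ in HEPES buffer, pH 7.5. Phosphorylated and unphosphorylated peptide were separated by off-chip mobility shift, and the product ratio P/(P+S) gave percent inhibition.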

T1 sequence (P16234 550-1089 T674I): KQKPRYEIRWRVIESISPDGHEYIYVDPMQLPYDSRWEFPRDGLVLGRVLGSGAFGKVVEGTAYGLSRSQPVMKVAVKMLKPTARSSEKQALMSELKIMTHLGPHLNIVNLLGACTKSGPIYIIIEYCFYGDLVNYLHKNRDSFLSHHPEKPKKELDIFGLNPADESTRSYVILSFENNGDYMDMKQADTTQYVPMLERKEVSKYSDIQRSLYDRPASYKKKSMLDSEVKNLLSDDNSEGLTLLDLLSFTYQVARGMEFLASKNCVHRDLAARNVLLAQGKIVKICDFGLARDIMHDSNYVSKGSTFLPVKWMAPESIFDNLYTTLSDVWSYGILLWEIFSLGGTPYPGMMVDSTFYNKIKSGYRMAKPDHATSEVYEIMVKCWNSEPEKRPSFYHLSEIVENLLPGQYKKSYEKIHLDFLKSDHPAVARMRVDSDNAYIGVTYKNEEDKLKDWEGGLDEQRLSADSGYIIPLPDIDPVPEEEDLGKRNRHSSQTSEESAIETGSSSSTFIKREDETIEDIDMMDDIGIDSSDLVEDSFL

Row | Compound | IC50 [1] | IC50 [2]
1 | CCn1cc2ncc(N[C@@H](C)c3cc(NC(=O)c4ccc(N5CCN(C)CC5)c(Cl)c4)ccc3F)nc2n1 [Compound 413, (S)-3-chloro-N-(3-(1-((2-ethyl-2H-pyrazolo[3,4-b]pyrazin-6-yl)amino)ethyl)-4-fluorophenyl)-4-(4-methylpiperazin-1-yl) benzamide] | < 0.3 µM | < 0.3 µM
2 | CCn1cc2ncc(N[C@@H](C)c3cccc(NC(=O)Cc4ccc5c(n4)CCCC5)c3)nc2n1 [Compound 723, (S)-N-(3-(1-((2-ethyl-2H-pyrazolo[3,4-b]pyrazin-6-yl)amino)ethyl)phenyl)-2-(5,6,7,8-tetrahydroquinolin-2-yl) acetamide] | < 0.3 µM | ≥ 1 µM
3 | CCn1cc2ncc(N[C@@H](C)c3cccc(NC(=O)c4cnc(NC(C)=O)s4)c3)nc2n1 [Compound 370, (S)-2-acetamido-N-(3-(1-((2-ethyl-2H-pyrazolo[3,4-b]pyrazin-6-yl)amino)ethyl)phenyl)thiazole-5-carboxamide] | 0.3 to 1 µM | ≥ 1 µM
4 | CSc1ncc(C(=O)Nc2cccc([C@H](C)Nc3cnc4cnn(C)c4n3)c2)cc1C [Compound 223, (S)-5-methyl-N-(3-(1-((1-methyl-1H-pyrazolo[3,4-b]pyrazin-6-yl)amino)ethyl)phenyl)-6-(methylthio)nicotinamide] | < 0.3 µM | < 0.3 µM
5 | CCn1cc2ncc(N[C@@H](C)c3cc(NC(=O)c4cnc(N5CCN(C)CC5)c(C(F)(F)F)c4)ccc3F)nc2n1 [Compound 445, (S)-N-(3-(1-((2-ethyl-2H-pyrazolo[3,4-b]pyrazin-6-yl)amino)ethyl)-4-fluorophenyl)-6-(4-methylpiperazin-1-yl)-5-(trifluoromethyl)nicotinamide] | < 0.3 µM | < 0.3 µM
6 | CC(C)c1cc(C(=O)Nc2cccc([C@H](C)Nc3cnc4cnn(C)c4n3)c2)n[nH]1 [Compound 161, (S)-5-isopropyl-N-(3-(1-((1-methyl-1H-pyrazolo[3,4-b]pyrazin-6-yl)amino)ethyl)phenyl)-1H-pyrazole-3-carboxamide] | < 0.3 µM | < 0.3 µM
7 | C[C@H](Nc1cnc2cnn(C)c2n1)c1cccc(NC(=O)Nc2cccnc2)c1 [Compound 730, (S)-1-(3-(1-((1-methyl-1H-pyrazolo[3,4-b]pyrazin-6-yl)amino)ethyl)phenyl)-3-(pyridin-3-yl)urea] | < 0.3 µM | 0.3 to 1 µM
8 | CCOc1ccc(C(=O)Nc2cccc([C@H](C)Nc3cnc4cnn(C)c4n3)c2)cc1C [Compound 196, (S)-4-ethoxy-3-methyl-N-(3-(1-((1-methyl-1H-pyrazolo[3,4-b]pyrazin-6-yl)amino)ethyl)phenyl)benzamide] | < 0.3 µM | < 0.3 µM
9 | CNc1ccc(C(=O)Nc2cccc([C@H](C)Nc3cnc4cnn(C)c4n3)c2)cn1 [Compound 120, (S)-N-(3-(1-((1-methyl-1H-pyrazolo[3,4-b]pyrazin-6-yl)amino)ethyl)phenyl)-6-(methylamino)nicotinamide] | < 0.3 µM | 0.3 to 1 µM
10 | CCn1cc2ncc(N[C@@H](C)c3cccc(NC(=O)Cc4ccc(C5CC5)cn4)c3)nc2n1 [Compound 682, (S)-2-(5-cyclopropylpyridin-2-yl)-N-(3-(1-((2-ethyl-2H-pyrazolo[3,4-b]pyrazin-6-yl)amino)ethyl)phenyl)acetamide] | 0.3 to 1 µM | ≥ 1 µM
11 | C[C@H](Nc1cnc2cc(C3CC3)sc2n1)c1cc(NC(=O)c2ccc(C(F)(F)F)nc2)ccc1F [Compound 616, (S)-N-(3-(1-((6-cyclopropylthieno[2,3-b]pyrazin-3-yl)amino)ethyl)-4-fluorophenyl)-6-(trifluoromethyl)nicotinamide] | < 0.3 µM | < 0.3 µM
12 | CCn1cc2ncc(N[C@@H](C)c3cccc(NC(=O)c4ccc(F)c(C)c4)c3)nc2n1 [Compound 330, (S)-N-(3-(1-((2-ethyl-2H-pyrazolo[3,4-b]pyrazin-6-yl)amino)ethyl)phenyl)-4-fluoro-3-methylbenzamide] | < 0.3 µM | < 0.3 µM
13 | Cc1cc2ncc(N[C@@H](C)c3cccc(NC(=O)c4ccc(C5CC5)nc4)c3)nc2s1 [Compound 610, (S)-6-cyclopropyl-N-(3-(1-((6-methylthieno[2,3-b]pyrazin-3-yl)amino)ethyl)phenyl) nicotinamide] | < 0.3 µM | < 0.3 µM
14 | CCn1cc2ncc(N[C@@H](C)c3cc(NC(=O)Cc4ccc(C5CC5)cn4)ccc3F)nc2n1 [Compound 655, (S)-2-(5-cyclopropylpyridin-2-yl)-N-(3-(1-((2-ethyl-2H-pyrazolo[3,4-b]pyrazin-6-yl)amino)ethyl)-4-fluorophenyl) acetamide] | < 0.3 µM | ≥ 1 µM
15 | COc1ncc(C(=O)Nc2cccc([C@H](C)Nc3cnc4cnn(C)c4n3)c2)cc1Cl [Compound 187, (S)-5-chloro-6-methoxy-N-(3-(1-((1-methyl-1H-pyrazolo[3,4-b]pyrazin-6-yl)amino)ethyl)phenyl)nicotinamide] | < 0.3 µM | < 0.3 µM
16 | CCn1cc2ncc(N[C@@H](C)c3cccc(NC(=O)Cc4ccc(OC)cn4)c3)nc2n1 [Compound 697, (S)-N-(3-(1-((2-ethyl-2H-pyrazolo[3,4-b]pyrazin-6-yl)amino)ethyl)phenyl)-2-(5-methoxypyridin-2-yl)acetamide] | 0.3 to 1 µM | ≥ 1 µM
17 | CCn1cc2ncc(N[C@@H](C)c3cccc(NC(=O)c4ccc(Cl)s4)c3)nc2n1 [Compound 293, (S)-5-chloro-N-(3-(1-((2-ethyl-2H-pyrazolo[3,4-b]pyrazin-6-yl)amino)ethyl)phenyl)thiophene-2-carboxamide] | < 0.3 µM | < 0.3 µM
18 | CCc1c[nH]c2ncc(N[C@@H](C)c3cccc(NC(=O)c4cncc(C)c4)c3)nc12 [Compound 564, (S)-N-(3-(1-((7-ethyl-5H-pyrrolo[2,3-b]pyrazin-2-yl)amino)ethyl)phenyl)-5-methylnicotinamide] | < 0.3 µM | < 0.3 µM
19 | CCn1cc2ncc(N[C@@H](C)c3cccc(NC(=O)c4cnc(C(N)=O)s4)c3)nc2n1 [Compound 365, (S)-N5-(3-(1-((2-ethyl-2H-pyrazolo[3,4-b]pyrazin-6-yl)amino)ethyl)phenyl)thiazole-2,5-dicarboxamide] | < 0.3 µM | < 0.3 µM
20 | CCn1cc2ncc(N[C@@H](C)c3cc(NC(=O)c4cnc5ccccc5c4)ccc3F)nc2n1 [Compound 63, (S)-N-(3-(1-((2-ethyl-2H-pyrazolo[3,4-b]pyrazin-6-yl)amino)ethyl)-4-fluorophenyl) quinoline-3-carboxamide] | < 0.3 µM | < 0.3 µM
21 | CCn1cc2ncc(N[C@@H](C)c3cccc(NC(=O)c4ccc(C(F)(F)F)nc4)c3)nc2n1 [Compound 284, (S)-N-(3-(1-((2-ethyl-2H-pyrazolo[3,4-b]pyrazin-6-yl)amino)ethyl)phenyl)-6-(trifluoromethyl)nicotinamide] | 0.3 to 1 µM | 0.3 to 1 µM
22 | CCn1cc2ncc(N[C@@H](C)c3cccc(NC(=O)c4cnc(NC(C)C)c(C)c4)c3)nc2n1 [Compound 371, (S)-N-(3-(1-((2-ethyl-2H-pyrazolo[3,4-b]pyrazin-6-yl)amino)ethyl)phenyl)-6-(isopropylamino)-5-methylnicotinamide] | < 0.3 µM | 0.3 to 1 µM
23 | C[C@H](Nc1cnc2cnn(C)c2n1)c1cccc(NC(=O)c2cnn(C(F)F)c2)c1 [Compound 149, (S)-1-(difluoromethyl)-N-(3-(1-((1-methyl-1H-pyrazolo[3,4-b]pyrazin-6-yl)amino)ethyl)phenyl)-1H-pyrazole-4-carboxamide] | < 0.3 µM | < 0.3 µM
24 | CCn1cc2ncc(N[C@@H](C)c3cccc(NC(=O)c4cnc(C5OCCO5)s4)c3)nc2n1 [Compound 400, (S)-2-(1,3-dioxolan-2-yl)-N-(3-(1-((2-ethyl-2H-pyrazolo[3,4-b]pyrazin-6-yl)amino)ethyl)phenyl)thiazole-5-carboxamide] | 0.3 to 1 µM | ≥ 1 µM
25 | Cc1cc2ncc(N[C@@H](C)c3cc(NC(=O)c4ccc(C5CC5)nc4)ccc3F)nc2s1 [Compound 612, (S)-6-cyclopropyl-N-(4-fluoro-3-(1-((6-methylthieno[2,3-b]pyrazin-3-yl)amino)ethyl)phenyl)nicotinamide] | < 0.3 µM | < 0.3 µM
26 | Cc1n[nH]c2ncc(N[C@@H](C)c3cccc(NC(=O)c4cnn(C(F)F)c4)c3)nc12 [Compound 546, (S)-1-(difluoromethyl)-N-(3-(1-((3-methyl-1H-pyrazolo[3,4-b]pyrazin-5-yl)amino)ethyl)phenyl)-1H-pyrazole-4-carboxamide] | < 0.3 µM | < 0.3 µM
27 | CCn1cc2ncc(N[C@@H](C)c3cccc(NC(=O)c4cncc(C)c4)c3)cc2n1 [Compound 11, (S)—N-(3-(1-((2-ethyl-2H-pyrazolo[4,3-b]pyridin-6-yl)amino)ethyl)phenyl)-5-methylnicotinamide] | < 0.3 µM | < 0.3 µM
28 | C[C@H](Nc1cnc2cnn(C)c2n1)c1cccc(NC(=O)c2ccc3ncn(C)c3c2)c1 [Compound 73, (S)-1-methyl-N-(3-(1-((1-methyl-1H-pyrazolo[3,4-b]pyrazin-6-yl)amino)ethyl)phenyl)-1H-benzo[d]imidazole-6-carboxamide] | < 0.3 µM | < 0.3 µM
29 | CCn1cc2ncc(N[C@@H](C)c3cccc(NC(=O)c4ccc(CN5CC6(COC6)C5)c(F)c4)c3)nc2n1 [Compound 468, (S)-4-((2-oxa-6-azaspiro[3.3]heptan-6-yl)methyl)-N-(3-(1-((2-ethyl-2H-pyrazolo[3,4-b]pyrazin-6-yl)amino)ethyl)phenyl)-3-fluorobenzamide] | 0.3 to 1 µM | ≥ 1 µM
30 | CCn1cc2ncc(N[C@@H](C)c3cc(NC(=O)Cc4ccc(C5CCC5)nc4)ccc3F)nc2n1 [Compound 671, (S)-2-(6-cyclobutylpyridin-3-yl)-N-(3-(1-((2-ethyl-2H-pyrazolo[3,4-b]pyrazin-6-yl)amino)ethyl)-4-fluorophenyl) acetamide] | < 0.3 µM | ≥ 1 µM
